Test results: paper PMC12040169 (PLOS Biology, 2025)

Assay: in vitro
Details: human, hela cells, % viability

SMILES	viability at 28.5 h, 10 µM [%]
Cc1cccn2c(=O)cc(CN3CCC(n4ccnc4)CC3)nc12 [CBK305519]	92.3
CCCn1c(SCC(=O)c2ccc(CCNC(C)=O)cc2)n[nH]c1=O [CBK296965]	92.1
N[C@@H]1CCCN(C(=O)C2CC2)[C@H]1c1ccccc1F [CBK281563]	97
Oc1cccc(Sc2cc(N3CCCC3)ncn2)c1 [CBK093749]	97.4
CCc1nc2ccc(C(=O)NCCOc3ccc(OC)cc3)cn2c1N(C)CC [CBK145504]	91.9
O=C(O)CCCn1cc(NC(=O)c2ccccc2Br)cn1 [CBK270100]	82.9
CN(C)CC(=O)NC(Cc1cccs1)c1nccs1 (stereo not shown) [CBK285061]	91.1
COc1ccc(-c2cnc3[nH]c(=O)n([C@@H](CO)C(C)C)c3n2)c(OC)c1OC [CBK064774]	94.3
O=c1oc2ccccc2c(O)c1Cc1c(O)c2ccccc2oc1=O [CBK016703G]	74
N#C/C(=C\c1ccc(OCC(=O)c2ccc(F)cc2)cc1)c1nc(-c2cc3ccccc3oc2=O)cs1 [CBK266769]	90.6
O=C(CSc1nccn(-c2ccc(F)cc2)c1=O)Nc1ccc(F)cc1 [CBK287768]	91.2
CCn1c2cc(C)oc2c2cnn(CC(=O)N(C)C)c(=O)c21 [CBK284224]	83.4
CC(NC(=O)Cn1c(=O)oc2ccc(Cl)cc21)C1CC2CCC1C2 (stereo not shown) [CBK281636]	87.7
COc1ccc(Br)cc1S(=O)(=O)n1ccnc1C [CBK264003]	87.1
COc1ccc(OC)c(CCO)c1 [CBK003033]	94.4
COc1ccc(-c2cnc(N)c(N[C@H](C)c3ccccc3)n2)c(OC)c1OC [CBK063747]	105
O=C(NC1(c2ccccc2)CC1)c1cccc(-n2cnnc2)c1 [CBK282779]	99.1
Cc1coc(C)c1C(=O)CC1(O)C(=O)N(CCCC#N)c2ccccc21 (stereo not shown) [CBK307383]	86
O=C(NC1CC1)[C@@H]1C=CCN1S(=O)(=O)c1ccccc1Cl [CBK285479]	103
O=C(O)CCN1CCN(S(=O)(=O)c2ccc3ccccc3c2)CC1 [CBK269255]	88.4
CCc1nc2ccc(C(=O)Nc3ccc(NC(C)=O)cc3)cn2c1N(CC)Cc1ccc(OC)c(OC)c1 [CBK146994]	97.8
O=c1c2ccccc2nc(CSc2[nH]cnc3ncnc2-3)n1-c1cccc(C(F)(F)F)c1 [CBK264991]	105

SMILES	viability at 28.5 h, 10 µM [%]
O=C(Nc1ccccc1N1CCOCC1)c1ccc(OCc2ccccc2)cc1 [CBK265992]	96.3
C(=C\c1ccccc1)/CN1CCN(C2CCN(CCc3ccccc3)CC2)CC1 [CBK261923]	108
OCc1ccccc1-c1cncc(NCCc2c[nH]c3ccccc23)n1 [CBK037852]	93.2
O=C(O)C1CCCN1C(=O)c1ccc(C#CC2(O)CCCCC2)cc1 (stereo not shown) [CBK287022]	105
COc1cccc(CN2CCN(Cc3cc(OC)cc(OC)c3)CC2)c1 [CBK033622]	91.2
c1ccc2[nH]c(CCSCCc3nc4ccccc4[nH]3)nc2c1 [CBK023949]	86
CCC(Sc1nc(C)cc(C)n1)C(=O)Nc1ccc(NC(C)=O)cc1 (stereo not shown) [CBK269804]	89
COc1cccc2ncn(CCc3csc(N)n3)c(=O)c12 [CBK307679]	81.9
COc1ccc(C)cc1S(=O)(=O)Nc1cc(N2CCN(C(C)C)CC2)c2occc2c1 [CBK073625C]	92
Cc1ccc(Cl)c(OC(C)C(=O)N(CCCO)Cc2ccncc2)c1 (stereo not shown) [CBK305432]	109
O=C(CSc1ccc2nnc(-c3cccnc3)n2n1)c1ccccc1 [CBK287624]	100
O=C(C1CCCC1)N1C[C@@H]2CCCCN(CC3CC3)[C@@H]2C1 [CBK285493]	104
CCc1nc2ccccc2c(NC(=O)CN2CCCCCC2)c1C [CBK261580G]	90.3
O=C(c1ccccc1CCc1ccccc1)N1CCN(Cc2ccc3c(c2)OCO3)CC1 [CBK268623]	120
Cc1sc2nc(SCc3nc(-c4ccccc4)no3)n(-c3ccccc3)c(=O)c2c1C [CBK266492]	110
O=C1Nc2c(cnn2-c2ccccc2Cl)C2=NCCCN12 [CBK283331]	100
Cc1ccc(Cn2nnc3c(O)nc(C4CCN(C(=O)CC(C)(C)C)CC4)nc32)cc1 [CBK293970]	91.2
Cc1oc(C2CC2)cc1C(=O)N1CCCC1c1nc2ccccc2[nH]1 (stereo not shown) [CBK283741]	88.1
Cc1cc(NS(=O)(=O)c2cccc3nonc23)n(C)n1 [CBK067247]	93.7
Cc1ncc([N+](=O)[O-])n1Cc1nnc(S)n1C [CBK267873]	95.4
COc1ccc(-c2c3c(nc4sc(C#N)c(N)c24)CCCC3)cc1 [CBK270279]	80
CCOC(=O)c1ccccc1NS(C)(=O)=O [CBK262271]	101

SMILES	viability at 28.5 h, 10 µM [%]
CCN1CCN(C(=O)C2CCN(S(=O)(=O)c3ccc(Br)cc3)CC2)CC1 [CBK266881]	103
O=C(O)c1cccc(-c2ccc(/C=N/NC(=O)c3sc4ccccc4c3Cl)o2)c1 [CBK263863]	91
Cn1nc(C2CCCC2)cc1[C@H]1CN2CC[C@H]1C[C@@H]2CNC(=O)N1CCOCC1 [CBK288740]	83.4
CCOc1ccc(S(=O)(=O)N2CCCN(Cc3cccc(C(F)(F)F)c3)CC2)c2cccnc12 [CBK062760]	84.3
O=C(CSCc1ccc(Cl)cc1)Nc1ccc(O)cc1C(=O)O [CBK131694]	97.1
CCc1nnc(Sc2ccc(C=O)cc2[N+](=O)[O-])[nH]1 [CBK268876]	95.4
c1ccc2cc(CCN3CCC(Oc4cncc(OCCN5CCOCC5)n4)C3)ccc2c1 (stereo not shown) [CBK084503]	92.7
NC(=O)[C@H]1C[C@@H](O)[C@H](O)[C@H]2[C@@H]1S/C(=N\c1ccccc1)N2Cc1cccs1 [CBK288944]	100
O=C(C1CN(C(=O)Cn2ncc(=O)c3ccccc32)c2ccccc2O1)N1CCCCC1 (stereo not shown) [CBK297115]	93.5
COc1ccc(C2C(C(=O)Nc3ccccc3)=C(C)Nc3ncnn32)cc1 (stereo not shown) [CBK287353]	103
CC(Oc1ccc(/C=N/n2cnnc2)cc1)C(=O)O (stereo not shown) [CBK263927]	82
O=C(O)c1cc(-c2ccccn2)nc2ccccc12 [CBK262147K]	108
O=C(O)C(Cc1cnc[nH]1)N1C(=O)c2ccccc2C1=O (stereo not shown) [CBK217815]	110
COc1cccc2cc(C(=O)NCC3COc4ccccc4O3)oc12 (stereo not shown) [CBK149791]	109
COc1ccc(CCNc2oc(COc3ccccc3)nc2C#N)cc1 [CBK074469]	90.2
CCCc1nc(SC)ncc1C(=O)NCc1ccccn1 [CBK291190]	108
CC(=O)Nc1cccc(-c2cc(NCc3ccccc3)n3nccc3n2)c1 [CBK037153]	97.2
Cn1ccnc1CCC1CCCCN1C(=O)NCc1cccc(F)c1 (stereo not shown) [CBK307124]	93.5
Cc1cc(C)c(C)c(S(=O)(=O)Nc2ccc(C(=O)NCc3ccccn3)cc2)c1C [CBK267275]	85.8
CC(C)Nc1cc(SCCN(C)C)ncn1 [CBK105616]	109
O=C1N=C(NC23CC4CC(CC(C4)C2)C3)OC1c1ccccc1 (stereo not shown) [CBK105263]	107
CCn1c2cc(C)oc2c2cn[nH]c(=O)c21 [CBK284230]	76.1

SMILES	viability at 28.5 h, 10 µM [%]
C[C@H](NC(=O)OC(C)(C)C)C(=O)NC[C@H]1CC[C@H](C(=O)O)CC1 [CBK286741]	98.7
COc1ccc(CC(=O)Nc2cccc(-c3cn4ccc(C)cc4n3)c2)cc1OC [CBK269148]	84.5
CN(C)CCN(C)C(=O)c1ccc(-c2ccc3c(c2)OCO3)nc1N(C)C [CBK106072]	92.7
COc1ccc(/N=C(/Nc2cccc(C(F)(F)F)c2)SC)cc1 [CBK018896I]	98.4
COCCNC(=O)CN(C)c1nc(-c2ccncc2)nc2ccccc12 [CBK305611]	94.2
COc1ccc2nc(NC(=O)c3ccc4c(c3)OCCO4)sc2c1 [CBK287572]	103
COc1ccccc1C(NC(=O)C1CCN(C(=O)c2cccc(Cl)c2)CC1)c1ccccn1 (stereo not shown) [CBK059637]	90.3
Cc1csc(NC(=O)c2ncoc2-c2cccs2)n1 [CBK283972]	88.2
CCOC(=O)c1cnc(SCC(=O)N2c3ccccc3SC3C=CC=CC32)nc1N (stereo not shown) [CBK269029]	99.6
Cc1ccc(-c2noc(CSc3nnc(-c4ccncc4)n3-c3ccc(C)cc3)n2)cc1 [CBK268879]	101
CC(C)(CO)CNc1nc(-c2ccc(F)c(Cl)c2)cnc1N [CBK063484]	102
CC1CC(C)CN(C(=O)NCCCCCC(=O)O)C1 (stereo not shown) [CBK286793]	89
O=C(O)c1cc(S(=O)(=O)Nc2ccccc2C(=O)O)ccc1Br [CBK262371]	98.8
COCCNC(=O)c1sc2ncn(CC(=O)Nc3ccccc3OC)c(=O)c2c1C [CBK071846]	88.7
Cc1c(Br)c([N+](=O)[O-])nn1C(C)C(=O)Nc1sc2c(c1C(N)=O)CCCC2 (stereo not shown) [CBK268914]	88.1
Nc1ncnc(Nc2ccc(F)cc2Cl)c1[N+](=O)[O-] [CBK267255]	93.1
COc1ncc(-c2ccc(NCCn3cc[nH]c3=O)nc2)c(OC)n1 [CBK037719]	88.9
CC(C)CCn1cc(C(=O)N2CCNCC2c2cccc(Cl)c2)nn1 (stereo not shown) [CBK304115]	91.4
C=CCN1C(=O)C2(CC(=O)N(C)C2=O)c2ccccc21 (stereo not shown) [CBK075137]	93.6

Same assay, conditions: human, hela cells, % viability, bulk resorufin, single well

SMILES	viability at 28.5 h, 10 µM [%]
CCOC(=O)C1(c2ccccc2)CCN(C(=O)c2ccc3ncccc3c2)CC1 [CBK132206]	107
c1cc2c(cc1-c1ccc3c(c1)COC1(CCNCC1)O3)CCO2 [CBK060920]	108
COc1ccc(CN2CCN(Cc3ccccc3)CC2)c(OC)c1 [CBK261553]	115
